Measurements taken from patent publication US20100160445A1, “Synergistic Mixtures of OPP and DGH” (priority 2002, published 2010).
Structures can show the parent of a compound that is named as a salt.

Test system: wild strain bacteria isolated from previously contaminated systems
Assay: In-Can Preservation Test of paint samples; on Microbial growth, 1st Inoculation, 1st sub-column: key: 4 = Heavy Microbial Growth; 3 = Moderate Microbial Growth; 2 = Slight Microbial Growth; 1 = Trace Microbial Growth; 0 = No Microbial Growth; on Microbial growth, 1st Inoculation, 2nd sub-column: key: 4 = Heavy Microbial Growth; 3 = Moderate Microbial Growth; 2 = Slight Microbial Growth; 1 = Trace Microbial Growth; 0 = No Microbial Growth; on Microbial growth, 2nd Inoculation, 1st sub-column: key: 4 = Heavy Microbial Growth; 3 = Moderate Microbial Growth; 2 = Slight Microbial Growth; 1 = Trace Microbial Growth; 0 = No Microbial Growth; on Microbial growth, 2nd Inoculation, 2nd sub-column: key: 4 = Heavy Microbial Growth; 3 = Moderate Microbial Growth; 2 = Slight Microbial Growth; 1 = Trace Microbial Growth; 0 = No Microbial Growth
Format: cell-based
Settings: for Effective Preservative (ppm): two inoculation challenge
Protocol: Preservation Testing was performed on the three paint samples: Acrylic Flat, Acrylic and Vinyl Acrylic. Each sample was treated with various levels OPP, DGH individually and a mixture of OPP and DGH. All samples were then inoculated with wild strain bacteria isolated from previously contaminated systems. Following the initial inoculation, the samples were reinoculated on day 7. This testing scenario best simulates what happens in a “real world” situation. […]

[1] = Table 2 paint (Acrylic Flat / Vinyl Acrylic Flat), 250 ppm
[2] = Table 2 paint (Acrylic Flat / Vinyl Acrylic Flat), 500 ppm
[3] = Table 2 paint (Acrylic Flat / Vinyl Acrylic Flat), 750 ppm
[4] = Table 2 paint (Acrylic Flat / Vinyl Acrylic Flat), 1000 ppm
[5] = Table 2 paint (Acrylic Flat / Vinyl Acrylic Flat), 1500 ppm
[6] = Table 2 paint (Acrylic Flat / Vinyl Acrylic Flat), 2000 ppm
[7] = Table 3 paint (Vinyl Acrylic Flat / Acrylic Flat), 250 ppm
[8] = Table 3 paint (Vinyl Acrylic Flat / Acrylic Flat), 500 ppm
[9] = Table 3 paint (Vinyl Acrylic Flat / Acrylic Flat), 750 ppm
[10] = Table 3 paint (Vinyl Acrylic Flat / Acrylic Flat), 1000 ppm
[11] = Table 3 paint (Vinyl Acrylic Flat / Acrylic Flat), 1500 ppm
[12] = Table 3 paint (Vinyl Acrylic Flat / Acrylic Flat), 2000 ppm

## CCCCCCCCCCCCNC(=N)N [DGH, Dodecylguanidine Hydrochloride]
Acrylic Flat paint
  Effective Preservative (ppm): 1500 ppm
Acrylic paint, 250 ppm
  Microbial growth, 1st Inoculation, 1st sub-column: 3
  Microbial growth, 1st Inoculation, 2nd sub-column: 3
  Microbial growth, 2nd Inoculation, 1st sub-column: 3
  Microbial growth, 2nd Inoculation, 2nd sub-column: 3
Acrylic paint, 500 ppm
  Microbial growth, 1st Inoculation, 1st sub-column: 3
  Microbial growth, 1st Inoculation, 2nd sub-column: 3
  Microbial growth, 2nd Inoculation, 1st sub-column: 2
  Microbial growth, 2nd Inoculation, 2nd sub-column: 3
Acrylic paint, 750 ppm
  Microbial growth, 1st Inoculation, 1st sub-column: 3
  Microbial growth, 1st Inoculation, 2nd sub-column: 2
  Microbial growth, 2nd Inoculation, 1st sub-column: 2
  Microbial growth, 2nd Inoculation, 2nd sub-column: 2
Acrylic paint, 1000 ppm
  Microbial growth, 1st Inoculation, 1st sub-column: 3
  Microbial growth, 1st Inoculation, 2nd sub-column: 2
  Microbial growth, 2nd Inoculation, 1st sub-column: 1
  Microbial growth, 2nd Inoculation, 2nd sub-column: 1
Acrylic paint, 1500 ppm
  Microbial growth, 1st Inoculation, 1st sub-column: 3
  Microbial growth, 1st Inoculation, 2nd sub-column: 0
  Microbial growth, 2nd Inoculation, 1st sub-column: 1
  Microbial growth, 2nd Inoculation, 2nd sub-column: 0
Acrylic paint, 2000 ppm
  Microbial growth, 1st Inoculation, 1st sub-column: 3
  Microbial growth, 1st Inoculation, 2nd sub-column: 0
  Microbial growth, 2nd Inoculation, 1st sub-column: 1
  Microbial growth, 2nd Inoculation, 2nd sub-column: 0
Acrylic paint
  Effective Preservative (ppm): 2000 ppm
[1]
  Microbial growth, 1st Inoculation, 1st sub-column: 3
  Microbial growth, 1st Inoculation, 2nd sub-column: 2
  Microbial growth, 2nd Inoculation, 1st sub-column: 3
  Microbial growth, 2nd Inoculation, 2nd sub-column: 2
[2]
  Microbial growth, 1st Inoculation, 1st sub-column: 3
  Microbial growth, 1st Inoculation, 2nd sub-column: 2
  Microbial growth, 2nd Inoculation, 1st sub-column: 2
  Microbial growth, 2nd Inoculation, 2nd sub-column: 2
[3]
  Microbial growth, 1st Inoculation, 1st sub-column: 3
  Microbial growth, 1st Inoculation, 2nd sub-column: 2
  Microbial growth, 2nd Inoculation, 1st sub-column: 2
  Microbial growth, 2nd Inoculation, 2nd sub-column: 2
[4]
  Microbial growth, 1st Inoculation, 1st sub-column: 3
  Microbial growth, 1st Inoculation, 2nd sub-column: 2
  Microbial growth, 2nd Inoculation, 1st sub-column: 3
  Microbial growth, 2nd Inoculation, 2nd sub-column: 2
[5]
  Microbial growth, 1st Inoculation, 1st sub-column: 3
  Microbial growth, 1st Inoculation, 2nd sub-column: 2
  Microbial growth, 2nd Inoculation, 1st sub-column: 3
  Microbial growth, 2nd Inoculation, 2nd sub-column: 1
[6]
  Microbial growth, 1st Inoculation, 1st sub-column: 3
  Microbial growth, 1st Inoculation, 2nd sub-column: 0
  Microbial growth, 2nd Inoculation, 1st sub-column: 1
  Microbial growth, 2nd Inoculation, 2nd sub-column: 0
[7]
  Microbial growth, 1st Inoculation, 1st sub-column: 3
  Microbial growth, 1st Inoculation, 2nd sub-column: 2
  Microbial growth, 2nd Inoculation, 1st sub-column: 3
  Microbial growth, 2nd Inoculation, 2nd sub-column: 2
[8]
  Microbial growth, 1st Inoculation, 1st sub-column: 2
  Microbial growth, 1st Inoculation, 2nd sub-column: 2
  Microbial growth, 2nd Inoculation, 1st sub-column: 3
  Microbial growth, 2nd Inoculation, 2nd sub-column: 1
[9]
  Microbial growth, 1st Inoculation, 1st sub-column: 2
  Microbial growth, 1st Inoculation, 2nd sub-column: 2
  Microbial growth, 2nd Inoculation, 1st sub-column: 3
  Microbial growth, 2nd Inoculation, 2nd sub-column: 1
[10]
  Microbial growth, 1st Inoculation, 1st sub-column: 2
  Microbial growth, 1st Inoculation, 2nd sub-column: 2
  Microbial growth, 2nd Inoculation, 1st sub-column: 3
  Microbial growth, 2nd Inoculation, 2nd sub-column: 1
[11]
  Microbial growth, 1st Inoculation, 1st sub-column: 2
  Microbial growth, 1st Inoculation, 2nd sub-column: 2
  Microbial growth, 2nd Inoculation, 1st sub-column: 2
  Microbial growth, 2nd Inoculation, 2nd sub-column: 2
[12]
  Microbial growth, 1st Inoculation, 1st sub-column: 2
  Microbial growth, 1st Inoculation, 2nd sub-column: 2
  Microbial growth, 2nd Inoculation, 1st sub-column: 2
  Microbial growth, 2nd Inoculation, 2nd sub-column: 2
Vinyl Acrylic Flat paint
  Effective Preservative (ppm): >2000 ppm
